Measurements from ChEMBL document CHEMBL1155917, “Use of the nitrile oxide cycloaddition (NOC) reaction for molecular probe generation: a new class of enzyme selective histone deacetylase inhibitors (HDACIs) showing picomolar activity at HDAC6” (J Med Chem, 2008).

Assays:
[1] = target: Histone deacetylase 2 (Homo sapiens, UniProt Q92769); experiment: Inhibition of HDAC2 after 17 hrs
[2] = target: Histone deacetylase 3 (Homo sapiens, UniProt O15379); experiment: Inhibition of HDAC3 after 17 hrs
[3] = target: T1, Protein deacetylase HDAC6 (Homo sapiens, UniProt Q9UBN7); experiment: Inhibition of HDAC6 after 17 hrs
T1 sequence (Q9UBN7 whole entry): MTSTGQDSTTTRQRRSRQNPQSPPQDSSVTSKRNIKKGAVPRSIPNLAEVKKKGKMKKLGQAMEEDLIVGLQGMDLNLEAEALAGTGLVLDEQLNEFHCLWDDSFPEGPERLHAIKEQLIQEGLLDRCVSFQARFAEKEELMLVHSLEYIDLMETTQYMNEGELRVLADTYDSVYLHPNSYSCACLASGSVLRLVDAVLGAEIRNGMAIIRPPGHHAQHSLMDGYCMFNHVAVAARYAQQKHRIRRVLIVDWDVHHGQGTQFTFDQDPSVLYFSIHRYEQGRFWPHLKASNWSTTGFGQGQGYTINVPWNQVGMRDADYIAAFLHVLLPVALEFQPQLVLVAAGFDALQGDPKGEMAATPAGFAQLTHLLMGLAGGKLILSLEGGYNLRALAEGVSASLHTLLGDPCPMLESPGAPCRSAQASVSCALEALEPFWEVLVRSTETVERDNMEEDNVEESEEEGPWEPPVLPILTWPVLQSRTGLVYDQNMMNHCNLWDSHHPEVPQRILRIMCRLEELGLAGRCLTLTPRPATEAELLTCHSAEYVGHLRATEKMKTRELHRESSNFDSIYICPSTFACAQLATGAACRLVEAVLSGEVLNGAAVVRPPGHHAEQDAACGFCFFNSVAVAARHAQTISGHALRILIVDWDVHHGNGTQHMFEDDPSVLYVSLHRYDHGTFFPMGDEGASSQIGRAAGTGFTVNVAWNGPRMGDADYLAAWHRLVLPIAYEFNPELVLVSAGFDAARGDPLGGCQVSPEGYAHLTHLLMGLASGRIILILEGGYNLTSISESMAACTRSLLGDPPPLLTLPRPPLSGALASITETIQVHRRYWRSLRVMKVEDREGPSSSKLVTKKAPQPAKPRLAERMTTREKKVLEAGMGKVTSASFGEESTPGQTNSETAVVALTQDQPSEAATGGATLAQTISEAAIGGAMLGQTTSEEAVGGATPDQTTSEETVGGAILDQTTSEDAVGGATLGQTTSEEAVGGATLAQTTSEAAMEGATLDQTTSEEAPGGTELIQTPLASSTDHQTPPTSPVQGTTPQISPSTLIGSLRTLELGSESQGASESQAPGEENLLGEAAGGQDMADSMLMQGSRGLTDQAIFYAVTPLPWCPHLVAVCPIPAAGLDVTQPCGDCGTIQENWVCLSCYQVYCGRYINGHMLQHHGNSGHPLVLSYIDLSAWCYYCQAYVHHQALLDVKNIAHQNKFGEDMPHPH

[4] = tested on: BXPC-3; experiment: Antiproliferative activity against human BxPC3 cells after 72 hrs by MTT assay; format: functional, cell-based; settings: BXPC-3, 72 h
[5] = tested on: HuP-T3; experiment: Antiproliferative activity against human HupT3 cells after 72 hrs by MTT assay; format: functional, cell-based; settings: HuP-T3, 72 h
[6] = tested on: MIA PaCa-2; experiment: Antiproliferative activity against human MiaPaca2 cells after 72 hrs by MTT assay; format: functional, cell-based; settings: MIA PaCa-2, 72 h
[7] = Antiproliferative activity against human Panc04.03 cells after 72 hrs by MTT assay; format: functional, cell-based; settings: Panc 04.03, 72 h
[8] = Antiproliferative activity against human SU.86.86 cells after 72 hrs by MTT assay; format: functional, cell-based; settings: SU.86.86, 72 h
[9] = target: Histone deacetylase 1 (Homo sapiens, UniProt Q13547)
Description: Inhibition of HDAC1 after 17 hrs

[10] = target: T2, Histone deacetylase 8 (Homo sapiens, UniProt Q9BY41)
T2 sequence (Q9BY41 whole entry): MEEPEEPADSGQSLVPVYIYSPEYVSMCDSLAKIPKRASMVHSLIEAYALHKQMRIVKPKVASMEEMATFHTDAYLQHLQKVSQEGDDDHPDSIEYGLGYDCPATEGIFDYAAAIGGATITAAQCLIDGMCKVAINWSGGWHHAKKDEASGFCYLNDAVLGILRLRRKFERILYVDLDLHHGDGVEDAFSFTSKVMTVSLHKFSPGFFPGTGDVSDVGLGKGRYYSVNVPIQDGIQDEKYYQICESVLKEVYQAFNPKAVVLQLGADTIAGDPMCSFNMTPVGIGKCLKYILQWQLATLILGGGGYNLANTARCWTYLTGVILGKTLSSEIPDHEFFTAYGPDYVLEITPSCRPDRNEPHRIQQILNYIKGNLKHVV
Description: Inhibition of HDAC8 after 17 hrs

[11] = target: T3, Polyamine deacetylase HDAC10 (Homo sapiens, UniProt Q969S8)
T3 sequence (Q969S8 whole entry): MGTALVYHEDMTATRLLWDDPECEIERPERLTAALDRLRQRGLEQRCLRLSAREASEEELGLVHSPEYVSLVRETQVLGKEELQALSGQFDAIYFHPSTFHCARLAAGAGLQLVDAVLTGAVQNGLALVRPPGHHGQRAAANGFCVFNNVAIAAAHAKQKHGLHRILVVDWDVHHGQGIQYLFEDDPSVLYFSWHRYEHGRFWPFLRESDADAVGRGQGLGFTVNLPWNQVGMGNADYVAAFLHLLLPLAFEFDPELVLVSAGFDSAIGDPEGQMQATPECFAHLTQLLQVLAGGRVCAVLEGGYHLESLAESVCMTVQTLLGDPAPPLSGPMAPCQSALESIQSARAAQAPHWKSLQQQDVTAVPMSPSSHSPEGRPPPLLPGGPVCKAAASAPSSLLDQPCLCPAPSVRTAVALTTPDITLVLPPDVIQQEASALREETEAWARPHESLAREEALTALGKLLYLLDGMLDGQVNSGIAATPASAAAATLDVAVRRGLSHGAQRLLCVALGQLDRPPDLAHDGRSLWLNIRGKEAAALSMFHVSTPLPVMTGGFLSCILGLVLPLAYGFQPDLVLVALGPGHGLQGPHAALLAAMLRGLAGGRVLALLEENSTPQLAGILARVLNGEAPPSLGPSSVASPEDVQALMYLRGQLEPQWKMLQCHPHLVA
Description: Inhibition of HDAC10 after 17 hrs

[12] = tested on: HMEC; experiment: Cytotoxicity against HMEC after 72 hrs by MTT assay; format: ADME, cell-based; settings: Homo sapiens
[13] = Cytotoxicity against HPDE 6c7 cells after 72 hrs by MTT assay; format: ADME, cell-based; settings: Homo sapiens, HPDE6c7, 72 h

Histone deacetylase 3, sequence (O15379 whole entry): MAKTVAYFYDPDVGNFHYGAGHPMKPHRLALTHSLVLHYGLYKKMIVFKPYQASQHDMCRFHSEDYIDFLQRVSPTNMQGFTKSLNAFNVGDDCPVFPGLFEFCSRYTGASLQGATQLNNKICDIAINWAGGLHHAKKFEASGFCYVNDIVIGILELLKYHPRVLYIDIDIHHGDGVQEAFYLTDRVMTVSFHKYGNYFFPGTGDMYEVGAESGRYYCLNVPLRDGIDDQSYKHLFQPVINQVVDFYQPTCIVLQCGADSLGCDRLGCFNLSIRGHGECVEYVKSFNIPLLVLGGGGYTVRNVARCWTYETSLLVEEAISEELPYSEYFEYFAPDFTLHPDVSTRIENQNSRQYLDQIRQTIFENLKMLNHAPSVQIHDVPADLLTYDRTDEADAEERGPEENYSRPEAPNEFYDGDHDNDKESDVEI
Histone deacetylase 1, sequence (Q13547 whole entry): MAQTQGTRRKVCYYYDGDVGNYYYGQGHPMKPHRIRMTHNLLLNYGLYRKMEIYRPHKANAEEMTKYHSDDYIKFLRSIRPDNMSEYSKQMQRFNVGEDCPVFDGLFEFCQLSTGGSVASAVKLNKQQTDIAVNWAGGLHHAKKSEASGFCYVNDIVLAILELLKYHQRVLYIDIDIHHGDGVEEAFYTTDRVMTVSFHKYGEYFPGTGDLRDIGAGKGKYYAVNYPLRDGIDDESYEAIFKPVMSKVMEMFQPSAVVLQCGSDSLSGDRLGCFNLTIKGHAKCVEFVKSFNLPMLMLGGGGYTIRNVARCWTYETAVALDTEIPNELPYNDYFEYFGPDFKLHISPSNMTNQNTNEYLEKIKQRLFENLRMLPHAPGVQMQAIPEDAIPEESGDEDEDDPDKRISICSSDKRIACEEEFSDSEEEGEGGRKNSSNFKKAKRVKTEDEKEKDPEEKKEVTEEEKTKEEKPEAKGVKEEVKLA
Histone deacetylase 2, sequence (Q92769 whole entry): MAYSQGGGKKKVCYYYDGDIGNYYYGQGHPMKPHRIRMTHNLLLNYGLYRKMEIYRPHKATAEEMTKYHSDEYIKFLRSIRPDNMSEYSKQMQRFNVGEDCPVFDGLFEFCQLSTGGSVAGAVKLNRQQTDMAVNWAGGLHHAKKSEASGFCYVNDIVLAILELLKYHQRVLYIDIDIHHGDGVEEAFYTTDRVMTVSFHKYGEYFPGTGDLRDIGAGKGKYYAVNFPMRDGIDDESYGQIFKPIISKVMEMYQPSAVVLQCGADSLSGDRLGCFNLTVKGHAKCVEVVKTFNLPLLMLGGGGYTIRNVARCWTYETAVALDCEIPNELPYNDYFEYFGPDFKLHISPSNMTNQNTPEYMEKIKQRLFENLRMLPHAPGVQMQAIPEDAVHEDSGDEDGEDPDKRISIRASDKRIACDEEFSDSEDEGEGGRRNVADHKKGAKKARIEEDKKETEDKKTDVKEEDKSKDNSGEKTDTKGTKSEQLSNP

| SMILES | IC50 [1] [nM] | IC50 [2] [nM] | IC50 [3] [nM] | IC50 [4] [µM] | IC50 [6] [nM] | IC50 [9] [nM] | IC50 [10] [µM] | IC50 [11] [nM] | IC50 [5] [nM] | IC50 [7] [µM] | IC50 [8] [nM] | IC50 [12] [nM] | IC50 [13] [nM] |
| --- | --- | --- | --- | --- | --- | --- | --- | --- | --- | --- | --- | --- | --- |
| Nc1cccc(-c2cc(C(=O)NCCCCC(=O)NO)no2)c1 | 1940 | 144 | 72.2 | 38 | 25000 | 716 | 3.43 | 840 | 37000 | > 50 | 25000 |  |  |
| CC(C)(C)OC(=O)Nc1ccc(-c2cc(C(=O)NCCCCC(=O)NO)no2)cc1 | 1740 | 115 | 31.6 | 25 | 12000 | 628 | 3.65 | 690 | 10000 | 16 | 24000 |  |  |
| O=C(CCCCNC(=O)c1cc(-c2ccccc2)on1)NO | 1690 | 158 | 61.9 | 28 | 4000 | 644 | 3.58 | 852 | 5000 | 5 | 5000 |  |  |
| Nc1cccc(-c2cc(C(=O)NCCCCCCC(=O)NO)no2)c1 | 56.7 | 4.04 | 2.54 | 0.7 | 100 | 20.7 | 0.938 | 17.5 | 100 | 0.9 | 200 | < 1000 | 200 |
| CC(C)(C)OC(=O)Nc1cccc(-c2cc(C(=O)NCCCCC(=O)NO)no2)c1 | 2980 | 83.6 | 3.98 | 36 | 8000 | 826 | 5.81 | 891 | 14000 | 14 | 22000 |  |  |

More lines, in order of falling IC50 [1], values ahead:

| IC50 [1] [nM] | IC50 [2] [nM] | IC50 [3] [nM] | IC50 [4] [µM] | IC50 [6] [nM] | IC50 [9] [nM] | IC50 [10] [µM] | IC50 [11] [nM] | SMILES | IC50 [5] [nM] | IC50 [7] [µM] | IC50 [8] [nM] | IC50 [12] [nM] | IC50 [13] [nM] |
| --- | --- | --- | --- | --- | --- | --- | --- | --- | --- | --- | --- | --- | --- |
| 1050 | 65.8 | 35.1 | 33 | 10000 | 360 | 2.83 | 401 | Nc1ccc(-c2cc(C(=O)NCCCCC(=O)NO)no2)cc1 | 7000 | 17 | 11000 |  |  |
| 252 | 0.42 |  | 1 | 100 | 271 | 6.85 | 90.7 | CC(C)(C)OC(=O)Nc1ccc(-c2cc(C(=O)NCCCCCCC(=O)NO)no2)cc1 | 300 | 0.1 | 600 | < 1000 | 500 |
| 238 | < 0.002 | < 0.002 | 1 | 700 | 100 | 8.1 | 28.2 | CC(C)(C)OC(=O)Nc1cccc(-c2cc(C(=O)NCCCCCCC(=O)NO)no2)c1 | 800 | 1 | 1000 | 7000 | 1500 |
| 147 | 10.2 | 5.86 | 0.8 | 100 | 56.3 | 3.46 | 44.9 | Nc1ccc(-c2cc(C(=O)NCCCCCCC(=O)NO)no2)cc1 | 200 | 0.1 | 800 | < 1000 | 400 |
| 133 | 12.9 | 49.5 | 7 | 1000 | 124 | 3.32 | 155 | O=C(CCCCOCc1cc(-c2ccccc2)on1)NO | 400 | 1.5 | 1000 |  |  |
| 131 | 18 | 6.81 | 6 | 900 | 64.5 | 4.9 | 73 | CC(=O)Nc1ccc(-c2cc(C(=O)NCCCCCCC(=O)NO)no2)cc1 | 1000 | 4 | 1000 |  |  |
